This passage reports XC50 results from ChEMBL document CHEMBL1157539, “Thousands of chemical starting points for antimalarial lead identification” (Nature, 2010).

Each structure is given as a SMILES string.

In the test the test system is Plasmodium falciparum. Kind of test: GSK_TCMDC: Inhibition of Plasmodium falciparum 3D7 in whole erythrocytes, using parasite LDH activity as an index of growth. The settings on record: Plasmodium falciparum, 3D7. The format is functional, organism-based.
For the molecule `CCN(CC)CCN(Cc1ccc(-c2ccc(C(F)(F)F)cc2)cc1)C(=O)Cn1cc(Cc2cnn(C)c2)c(=O)nc1/C=C/c1cccc(F)c1F`, the XC50 was 957 nM.
For the molecule `O=C(/C=C/c1ccc(I)cc1)NCCCCCN1CCC(c2c[nH]c3ccccc23)CC1`, the XC50 turned out to be 836 nM.
As for `CCN(CC(C)O)C(=O)c1ccc(-c2ccc(-c3nc4cccc(C)c4[nH]3)cc2)cc1` (stereo unspecified), the figure is 840 nM; as for `CC(C)(C)c1ccc2[nH]c(-c3ccc(C(=O)NCc4cccc(C(F)(F)F)c4)cc3)nc2c1`, 733 nM.
With `CC(CN1CCN(C)CC1)C(=O)Nc1cccc(-c2ccc(-c3nc4cc(C(F)(F)F)ccc4[nH]3)cc2)c1` (stereo unspecified) the figure was 607 nM.
With `CC(C)c1sc(N2CCN(C)CC2)nc1C(=O)NCCc1ccc(Br)cc1` the figure was 1130 nM; with `CCOc1ccc(C=CC(=O)Nc2ccc3nc(N4CCN(C)CC4)cc(C)c3c2)cc1OC`, 398 nM.
The molecule `Cc1cccc2nc(-c3cccc(-c4ccc(NC(=O)c5ccncc5)cc4)c3)[nH]c12` displayed an XC50 of 497 nM.
The molecule `FC(F)(F)c1ccc2[nH]c(-c3ccc(-c4ccc(CNCC5CCCO5)cc4)cc3)nc2c1` (stereo unspecified) showed an XC50 of 407 nM.
With `CN1CCc2cc(NS(=O)(=O)c3ccc(-c4ccc(Cl)cc4)cc3)c(OCCCN3CCCCC3)cc2CC1` the figure was 961 nM; with `CCn1c(Sc2ccc(C#N)c([N+](=O)[O-])c2)nnc1-c1cccc(Cl)c1`, 446 nM.
As for `COc1ccc(N2CCc3c(-c4cccc5cnccc45)cc(C)nc32)c(C)c1`, the figure is 655 nM; as for `CCCCn1c(C)c(C(=O)OCC)c2cc(OC(C)=O)c(Br)cc21`, 625 nM; as for `O=C(Nc1ccc(I)cc1)N1CCc2sccc2C1CN1CCCCC1` (stereo unspecified), 1200 nM.
As for `COc1ccc2c(-c3ccccc3)noc2c1`, the figure is 241 nM.
On to `CC(=O)Nc1ccc(C(=O)Nc2ccc(-c3csc(-c4nc5ccccc5[nH]4)c3)cc2)cn1`, for which the XC50 is 591 nM.
With `CC=Cc1cc(Cc2c[nH]c(=N)[nH]c2=N)cc(CCC)c1OC` the figure was 783 nM.
With `CS(=O)(=O)Cc1ccc(Nc2nccc(NC3CCN(c4nccc(C(F)(F)F)n4)CC3)n2)cc1` the figure was 896 nM.
With `Cc1cnc(C(=O)Nc2ccc(-c3cccc(-c4nc5ccccc5[nH]4)c3)cc2)cn1` the figure was 833 nM; with `O=[N+]([O-])c1cccc(CNCC2CCN(Cc3ccc(-c4ccccc4)cc3)CC2)c1`, 248 nM.
The molecule `CCn1c(CN2CCC(C)CC2)nc2cc(NC(=O)c3cccs3)ccc21` had an XC50 of 565 nM.
As for `CCc1ccc(-n2cc(C(=O)c3cc(Br)ccc3O)cc(C#N)c2=O)cc1`, the figure is 797 nM.
As for `O=c1cc(-c2ccc3ccccc3c2)[nH]c2ccccc12`, the figure is 1160 nM; as for `CC(=O)c1ccc(NC(=O)C2c3ccccc3C(=O)N(CC(C)C)C2c2cccs2)cc1` (stereo unspecified), 1320 nM.
For `CN(Cc1ccccc1)C1CCCN(c2cc(NC(=O)c3ccc(F)cc3)ccn2)C1` (stereo unspecified), the XC50 was 988 nM.
As for `OC(CNC1CCCCC1)Cn1c2ccc(Br)cc2c2cc(Br)ccc21` (stereo unspecified), the XC50 was 303 nM.
With `CC(=O)Nc1cccc(C(=O)Nc2ccc(-c3cccc(-c4nc5cccc(C)c5[nH]4)c3)cc2)c1` the figure was 789 nM.
Molecule `Cc1ccc(NC(=O)c2cccc(CN3CCCN(Cc4cccc(O)c4)CC3)c2)cc1` came in with an XC50 of 1310 nM.
As for `Cc1nc2nc(N)nc(N)c2c(C)c1Cc1ccc(C#N)cc1`, the figure is 542 nM; as for `O=c1cc(NCCCNCc2cc3ccc(Br)cc3s2)[nH]c2ccccc12`, 990 nM; as for `COc1ccc(OC)c(C(O)C(C)NCc2cc(Cl)ccc2O)c1` (stereo unspecified), 382 nM.
As for `CN1CCC(C(=O)Nc2cccc(-c3ccc(-c4nc5ccccc5[nH]4)cc3)c2)CC1`, the figure is 1090 nM.
With `Cc1c(-c2cccc(CNCCc3ccc(Cl)cc3)c2)cnc(N)c1C` the figure was 1040 nM.
As to `c1ccc2c(CNCCCN3CCN(CCCNCc4c5ccccc5cc5ccccc45)CC3)c3ccccc3cc2c1`, the XC50 came out at 182 nM.
As for `O=C(NC1CCN(c2ccnc(Nc3ccc(F)cc3)n2)C1)c1cc2ccccc2s1` (stereo unspecified), the figure is 716 nM; as for `CC(C)[C@H](NC(=O)c1c(CN2CCC(N3CCCCC3)CC2)c(-c2ccccc2)nc2cc(O)ccc12)c1ccccc1`, 741 nM.
As for `Nc1cc2c(C3CCN(CC4CCN(C(=O)/C=C/c5ccc(Cl)c(Cl)c5)CC4)CC3)c[nH]c2cn1`, the figure is 975 nM; as for `Cc1cc(NC(=O)Nc2ccc3ncccc3c2)c2ccccc2n1`, 956 nM.
With `NC1=NC(c2ccccc2)(c2ccccc2)C(=O)N1CCCCc1ccccn1` the figure was 1260 nM; with `CN(C)CCCSc1ccccc1NC(=O)C=Cc1ccccc1`, 964 nM.
Turning to `CC[C@H]1CN2CC[C@@H]1C[C@H]2[C@H](O)c1cc(N2CCCC(C)(C)C2)nc2ccc(OC)cc12`, the XC50 was 337 nM.
As for `CS(=O)(=O)Nc1cccc(-c2cnc3[nH]cc(-c4ccc(C(=O)O)c(F)c4)c3c2)c1`, the figure is 834 nM; as for `COc1cc(Nc2nccn3c(-c4ccsc4)cnc23)cc(OC)c1OC`, 890 nM.
With `O=C(NCc1cccc(F)c1)Nc1cccc(-c2ccc(-c3nc4cc(C(F)(F)F)ccc4[nH]3)cc2)c1` the figure was 766 nM; with `CC(Nc1ncc(-c2ccsc2)c(-c2nccs2)n1)c1ccc2c(c1)OCCO2` (stereo unspecified), 175 nM.
`CSc1ccc(CN2CCC(NC(=O)c3ccc(-c4ccc(N(C)C)cc4)s3)CC2)cc1` had an XC50 of 1500 nM.
As for `O=C(NOCCCCOc1ccc(Cl)c(Cl)c1)c1ccccc1`, the figure is 183 nM; as for `CCc1ccc(CN2CCC(CNC(=O)c3cc(-c4cccc(F)c4)cs3)C2)cc1` (stereo unspecified), 1360 nM; as for `CCCCCCCN1CC[C@@H](CCCc2ccnc3ccc(OCCN4CCNCC4)cc23)[C@@H](CC)C1`, 771 nM.
Consider `Cc1cccc2nc(-c3ccc(-c4ccc(CNCCCNS(C)(=O)=O)cc4)s3)[nH]c12`, for which the XC50 was found to be 999 nM.
As for `O=C(Nc1ccccc1)Nc1cccc(-c2nn3c(OCCN4CCCC4)cccc3c2-c2ccncc2)c1`, the figure is 404 nM; as for `CCCCCCC(CC)c1cc(O)c2c(c1)OC(C)(C)c1ccncc1-2` (stereo unspecified), 808 nM; as for `CN(CCN1CCC(c2c[nH]c3ccccc23)CC1)c1ccc(-c2nc3cc(Cl)c(Cl)cc3[nH]2)cc1`, 119 nM.
In the case of `O=C(NC1CCN(Cc2ccccc2)CC1)c1ccc(-c2nc3cc(Cl)c(F)cc3[nH]2)s1`, the XC50 worked out at 306 nM.
As for `O=C(N[C@H]1CCN(Cc2ccc(OCCN3CCCC3)c3ccccc23)C1)c1ccc(Cl)c(Cl)c1`, the figure is 746 nM; as for `CCOC(=O)c1ccc(NC(=O)N(Cc2ccc(-c3ccc(CN4CCNCC4)cc3)cc2)Cc2cccnc2)cc1`, 926 nM; as for `FC(F)(F)c1ccc2[nH]c(-c3cccc(-c4ccc(CNCCc5ccncc5)cc4)c3)nc2c1`, 98.9 nM.
As for `Cc1cc(=NN=Cc2ccc(Cl)cc2)c2cccc(C)c2[nH]1`, the figure is 723 nM; as for `CS(=O)(=O)NCCCNCc1ccc(-c2cccc(-c3nc4cc(F)ccc4[nH]3)c2)cc1`, 804 nM.
With `CN1CCC(NCc2ccc(-c3cccc(S(=O)(=O)NCC4CCCO4)c3)cc2)CC1` (stereo unspecified) the figure was 939 nM.
On to `N#Cc1ccc(-c2ccc(C(=O)NC3CCN(CCN4CCC(c5cn(CCO)c6ccccc56)CC4)CC3)cc2)cc1`, for which the XC50 was found to be 758 nM.
`COc1ccc2nccc(N3CCC(CCNCc4ccc5c(n4)NC(=O)CS5)CC3)c2n1` returned an XC50 of 227 nM.
As for `Cc1nc(-c2nc(N3CCOCC3)ncc2-c2ccsc2)sc1C`, the figure is 315 nM.
With `O=C(Nc1ccc(-c2ccccc2)cc1)Nc1cccc(Cn2ncc(N3CCCNCC3)c(Cl)c2=O)c1` the figure was 225 nM; with `COc1ccc2nc(C)cc(Nc3ccc(N4CCN(C)CC4)cc3)c2c1`, 788 nM.
With `O=C(Cc1c(-c2ccccc2)[nH]c2ccccc12)NC1CCC(CN2CCC(c3c[nH]c4ccccc34)CC2)CC1` (stereo unspecified), the XC50 is 476 nM.
For `COc1ccc(Br)cc1/C=C/C(=O)Nc1ccc2c(c1)CCCN(C)C2`, the XC50 turned out to be 1560 nM.
With `CCNc1cc(C(=O)N[C@@H](Cc2ccccc2)[C@H](O)CN[C@@H](C)c2cccc(OC)c2)cc(N2CCCC2=O)c1` the figure was 769 nM; with `O=C(Nc1ccc(C(F)(F)F)cc1)c1ccc(S(=O)(=O)NCC2CCCN(CC3CCCCC3)C2)cc1` (stereo unspecified), 152 nM; with `Cc1cc(=O)c(-c2ccc(Oc3cccc(OC(F)(F)F)c3)cc2)c(C)[nH]1`, 202 nM.
With `CC(C)Oc1cccc(-c2ccc(C(=O)NCC3CCCN(Cc4cccc(C(F)(F)F)c4)C3)s2)c1` (stereo unspecified) the figure was 1080 nM; with `CN(C)CCNCc1ccc(-c2cccc(-c3nc4ccccc4[nH]3)c2)cc1`, 717 nM.
As for `c1cc(Nc2nccc(-c3cnn4ncccc34)n2)cc(-c2cnco2)c1`, the figure is 692 nM; as for `Cc1cccc2nc(-c3cccc(-c4cccc(NC(=O)c5cccnc5Cl)c4)c3)[nH]c12`, 707 nM; as for `COc1ccc(CN2CCCN(Cc3ccc(C(=O)Nc4ccc(Cl)cc4)cc3)CC2)cc1`, 919 nM.
Turning to `CCCCn1c(SC(C)C)nc2c(c1=O)C1(CCCCC1)Cc1ccccc1-2`, the XC50 came to 666 nM.
With `CC(C)C[C@H](NC(=O)c1cc2ccccc2s1)C(=O)N[C@H]1CCN(Cc2ccc(I)c(OCCN3CCCC3)c2)C1` the figure was 1350 nM.
In turn, `COc1cc(N)cc2sc(N)nc12` registered an XC50 of 251 nM.
With `COc1ccc2ncc(F)c(CCN3CCC[C@H](CNCc4ccc5c(n4)NC(=O)CS5)C3)c2n1` the figure was 970 nM.
Regarding `CS(=O)(=O)CCNCc1nc(-c2ccc3ncnc(Nc4ccc(OCc5ccccc5)c(Cl)c4)c3c2)cs1`, the XC50 came out at 802 nM.
With `O=C(NC1CCCCN(Cc2ccc3c(c2)OCCO3)C1)c1cc(-c2ccccc2F)cs1` (stereo unspecified) the figure was 1050 nM.
With `Cc1ccc(NC(=O)c2ccc3ncccc3c2)cc1OC1CCN(C(C)C)C1` (stereo unspecified) the figure was 990 nM; with `Oc1cc(-c2nc(-c3ccccc3)[nH]c2-c2ccncc2)ccc1Cl`, 814 nM; with `O=C(Nc1ccc(-c2cccc(-c3nc4ccccc4[nH]3)c2)cc1)c1cnn2cccnc12`, 597 nM.
As for `COC(=O)c1cccc(NC(=O)NC2CCN(c3ccnc(Nc4ccc(OC)cc4)n3)C2)c1` (stereo unspecified), the figure is 472 nM; as for `CCCCN1CC[C@@H](CCC(O)c2ccnc3ccc(OCCC(C)C)cc23)[C@@H](CC)C1` (stereo partly specified), 989 nM.
